Experimental data from article PMC4039632 (Journal of molecular biology, 2013).

Molecular target: T1, EngD (Endoglucanase D) (Clostridium cellulovorans, UniProt P28623)
T1 sequence (P28623 32-515): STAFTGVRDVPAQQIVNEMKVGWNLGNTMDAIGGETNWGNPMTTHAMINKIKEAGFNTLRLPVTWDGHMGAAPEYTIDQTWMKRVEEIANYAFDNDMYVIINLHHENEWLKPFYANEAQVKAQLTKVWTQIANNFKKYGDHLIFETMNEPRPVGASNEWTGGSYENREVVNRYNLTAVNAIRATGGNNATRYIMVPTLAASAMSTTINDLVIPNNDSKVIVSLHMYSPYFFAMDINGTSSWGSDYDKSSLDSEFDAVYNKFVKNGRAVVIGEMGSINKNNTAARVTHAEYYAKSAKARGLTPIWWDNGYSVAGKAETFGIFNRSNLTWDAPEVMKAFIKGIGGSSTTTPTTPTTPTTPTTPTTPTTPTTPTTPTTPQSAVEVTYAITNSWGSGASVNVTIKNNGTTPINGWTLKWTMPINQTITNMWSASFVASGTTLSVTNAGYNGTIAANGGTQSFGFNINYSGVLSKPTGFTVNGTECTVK
Test: HPLC of hydrolysis products
Type: biochemical
Details: 2 mM substrate, 100 mM sodium citrate pH 5.0, 37 °C, 30 min

OC[C@H]1O[C@@H](O[C@H]2[C@H](O)[C@@H](O)[C@H](O[C@H]3[C@H](O)[C@@H](O)[C@H](O[C@H]4[C@H](O)[C@@H](O)[C@H](O[C@H]5[C@H](O)[C@@H](O)[C@H](O[C@H]6[C@H](O)[C@@H](O)C(O)O[C@@H]6CO)O[C@@H]5CO)O[C@@H]4CO)O[C@@H]3CO)O[C@@H]2CO)[C@H](O)[C@@H](O)[C@@H]1O (stereo partly shown) [G6, cellohexaose]
HPLC of hydrolysis products: Wild type EngD produced an equal amount cellotriose and cellobiose in the degradation of cellohexaose
